Test results taken from patent EP0391411A2, “3'-Substituted methyl nucleosides as antiviral agents” (Bristol-Myers Squibb Company, priority 1989, dated 1990).

Key:
[1] = tested on: Murine leukemia virus (MuLV); assay: UV-XC plaque assay against murine retroviruses; format: cell-based; details: SC1, SC-1 cells
Protocol: The compounds were evaluated for antiviral activity against Murine leukemia virus (MuLV) strains using the UV-XC plaque assay (Rowe, et al, "Virology", 42:1136, 1970).
The MuLV strains were grown in feral mouse cells (SC-1) and used for antiviral tests using the UV-XC plaque assay. Briefly, SC-1 cells are grown as monolayers in 4-well tissue culture plates and inoculated with approximately 50-100 plaque forming units of MuLV in 0.5 mL of 5% EMEM containing 20 ug/mL DEAE/Dextran. After 1 hour adsorption, the inoculum is removed and 5 mL of 5% EMEM containing three-fold dilutions of the appropriate drug are added. Five days later, the cultures are UV-irradiated with an ultraviolet lamp and rat XC sarcoma cells are added to the cultures. Three to four days after UV-irradiation, the cell cultures are stained with Giemsa stain and the plaques are enumerated. Antiviral activity is expressed in terms of the reduction in the mean number of UV-XC plaques counted in the drug treated, virus-infected cultures compared with mean number of plaques counted in untreated, virus-infected control cultures.

HIV (LAV strain) = assay: Anti-HIV/LAV activity in CEM-F cells, p-24 gag protein ELISA; format: cell-based; details: Human immunodeficiency virus 1, 192 h, eight days, p-24 gag protein in supernatant, read-out: HIV (ID50)
Protocol: The anti-HIV/LAV activity was measured in cultures of CEM-F cells. The CEM cells were infected with approximately 30 TCID₅₀ (50% tissue culture infectious dose) of HIV (LAV strain). The cells were then incubated for 45 minutes at 37°C. The test compounds, in culture medium, were added at various concentrations to the infected cells and then incubated for a further eight days. After eight days, the antiviral activity was evaluated in the culture media supernatant for p-24 gag protein by an enzyme capture assay (ELISA). The antiviral activity was expressed as the dose that inhibits 50% of the virus expression (ID₅₀ in µM) as detected by the assay described.

IC50 [1] [µM] | IC50 (HIV (LAV strain)) [µM] | Compound
0.0066 | 1 | Cc1cn([C@H]2C[C@H](N=[N+]=[N-])[C@@H](CO)O2)c(=O)[nH]c1=O [AZT, 3′-Azido-3′-deoxythymidine, reference compound]
17.7 | > 10 | Cc1cn([C@H]2C[C@H](CO)[C@@H](CO)O2)c(=O)[nH]c1=O [Example 4², 1-(2,3-Dideoxy-3-C-hydroxymethyl-β-D-erythro-pentofuranosyl)thymine]
> 32 |  | Cc1cn([C@@H]2C[C@H](CO)[C@@H](CO)O2)c(=O)[nH]c1=O [Example 4³, 1-(2,3-Dideoxy-3-C-hydroxymethyl-α-D-erythropentofuranosyl)thymine]
> 100 | 0.8 | Nc1ccn([C@@H]2O[C@H](CO)[C@@H](CO)[C@H]2O)c(=O)n1 [Example 8, 1-(3-Deoxy-3-C-hydroxymethyl-β-D-ribofuranosyl)cytosine]
83 | > 10 | O=c1ccn([C@H]2C[C@H](CO)[C@@H](CO)O2)c(=O)[nH]1 [Example 12, 1-(2,3-Dideoxy-3-C-hydroxymethyl-β-D-erythro-pentofuranosyl)uracil]
0.06 | > 0.1 | Nc1ccn([C@H]2C[C@H](CO)[C@@H](CO)O2)c(=O)n1 [Example 16², 1-(2,3-Dideoxy-3-C-hydroxymethyl-β-D-erythro-pentofuranosyl)cytosine]
 | 4.7 | Nc1ccn([C@@H]2C[C@H](CO)[C@@H](CO)O2)c(=O)n1 [Example 16³, 1-(2,3-Dideoxy-3-C-hydroxymethyl-α-D-erythro-pentofuranosyl)cytosine]
 | > 10 | Nc1ncnc2c1ncn2[C@H]1C[C@H](CO)[C@@H](CO)O1 [Example 25, 9-[2,3-Dideoxy-3-C-hydroxymethyl-β-D-erythro-pentofuranosyl]adenine]
5 | > 10 | O=c1[nH]cnc2c1ncn2[C@H]1C[C@H](CO)[C@@H](CO)O1 [Example 26, 9-(2,3-Dideoxy-3-C-hydroxymethyl-β-D-erythro-pentofuranosyl)hypoxanthine]
